Results published in BindingDB's records for doi:10.3109/14756366.2012.740477 (Solapur University, 2013).

Molecular target: Urease (Canavalia ensiformis, UniProt P07374)
Assay: Urease Inhibition Assay
Conditions: pH 6.8; 30 °C
Procedure: Mixture of 25 μL of urease enzyme (Jack bean) solution containing 1 unit of enzyme (1 unit = 0.02 mg of enzyme) was dissolved in phosphate buffer of pH 6.8, 55 μL of buffer containing 100 mM urea, and 5 μL of test compounds (0.5 mM concentration) was incubated at 30°C for 15 min in 96-well plates. Urease activity was determined by measuring ammonia production using the iodophenol method38. Briefly, 45 μL each of phenol reagent and 70 μL of alkali reagent were added to each well. The increase in absorbance at 630 nm was measured after 50 min, using a microplate reader (Molecular Device, CA, USA). All reactions were performed in triplicate in a final volume of 200 μL. The results (change in absorbance per min) were processed using Soft-Max Pro software (Molecular Device, CA, USA).

Sequence of Urease (P07374 whole entry): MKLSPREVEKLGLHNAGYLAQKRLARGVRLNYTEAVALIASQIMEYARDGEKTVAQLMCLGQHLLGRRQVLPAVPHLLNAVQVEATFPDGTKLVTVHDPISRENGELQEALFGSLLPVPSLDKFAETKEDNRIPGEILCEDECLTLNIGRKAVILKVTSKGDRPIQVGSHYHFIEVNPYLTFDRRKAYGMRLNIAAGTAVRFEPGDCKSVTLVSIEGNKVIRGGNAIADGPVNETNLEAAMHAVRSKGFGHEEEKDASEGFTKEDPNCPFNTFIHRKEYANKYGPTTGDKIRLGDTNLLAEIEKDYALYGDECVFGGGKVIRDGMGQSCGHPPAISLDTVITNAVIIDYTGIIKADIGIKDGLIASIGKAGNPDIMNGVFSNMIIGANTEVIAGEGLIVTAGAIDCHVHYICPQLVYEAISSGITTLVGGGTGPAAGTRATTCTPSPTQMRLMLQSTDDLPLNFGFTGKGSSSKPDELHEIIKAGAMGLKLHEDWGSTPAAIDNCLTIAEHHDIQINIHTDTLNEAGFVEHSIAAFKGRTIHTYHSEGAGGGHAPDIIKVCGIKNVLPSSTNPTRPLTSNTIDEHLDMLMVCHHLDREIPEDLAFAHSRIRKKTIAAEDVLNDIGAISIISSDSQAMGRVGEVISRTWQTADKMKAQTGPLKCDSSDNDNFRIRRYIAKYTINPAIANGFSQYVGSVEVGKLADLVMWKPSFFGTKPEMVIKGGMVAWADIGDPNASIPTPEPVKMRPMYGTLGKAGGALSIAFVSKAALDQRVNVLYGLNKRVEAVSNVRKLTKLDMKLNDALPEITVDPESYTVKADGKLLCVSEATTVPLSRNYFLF

Compound | IC50
Cn1c2ccccc2c2cc(-c3cc(-c4ccc(Cl)cc4Cl)nc(N)n3)ccc21 [4-(2,4-Dichlorophenyl)-6-(9-methyl-9H-carbazol-3-yl)-pyrimidin-2-amine (5i)] | 19.4 µM
Cn1c2ccccc2c2cc(-c3cc(-c4ccc(F)cc4F)nc(N)n3)ccc21 [4-(2,4-Difluorophenyl)-6-(9-methyl-9H-carbazol-3-yl)-pyrimidin-2-amine (5f)] | 40.2 µM
Cn1c2ccccc2c2cc(-c3cc(-c4cc(Cl)ccc4Cl)nc(N)n3)ccc21 [4-(2,5-Dichlorophenyl)-6-(9-methyl-9H-carbazol-3-yl)-pyrimidin-2-amine (5k)] | 28.1 µM
Cn1c2ccccc2c2cc(-c3cc(-c4ccc(Cl)c(Cl)c4)nc(N)n3)ccc21 [4-(3,4-Dichlorophenyl)-6-(9-methyl-9H-carbazol-3-yl)-pyrimidin-2-amine (5j)] | 23.2 µM
Cn1c2ccccc2c2cc(-c3cc(-c4ccc(F)c(F)c4)nc(N)n3)ccc21 [4-(3,4-Difluorophenyl)-6-(9-methyl-9H-carbazol-3-yl)-pyrimidin-2-amine (5g)] | 45.2 µM
COc1ccc(-c2cc(-c3ccc4c(c3)c3ccccc3n4C)nc(N)n2)cc1OC [4-(3,4-Dimethoxyphenyl)-6-(9-methyl-9H-carbazol-3-yl)-pyrimidin-2-amine (5c)] | 30.7 µM
Cn1c2ccccc2c2cc(-c3cc(-c4cccc(N)c4)nc(N)n3)ccc21 [4-(3-Aminophenyl)-6-(9-methyl-9H-carbazol-3-yl)-pyrimidin-2-amine (5p)] | 83.7 µM
Cn1c2ccccc2c2cc(-c3cc(-c4ccc(Br)cc4)nc(N)n3)ccc21 [4-(4-Bromophenyl)-6-(9-methyl-9H-carbazol-3-yl)-pyrimidin-2-amine (5l)] | 95.1 µM
Cn1c2ccccc2c2cc(-c3cc(-c4ccc(Cl)cc4)nc(N)n3)ccc21 [4-(4-Chlorophenyl)-6-(9-methyl-9H-carbazol-3-yl)-pyrimidin-2-amine (5h)] | > 100 µM
Cn1c2ccccc2c2cc(-c3cc(-c4ccc(F)cc4)nc(N)n3)ccc21 [4-(4-Fluorophenyl)-6-(9-methyl-9H-carbazol-3-yl)-pyrimidin-2-amine (5e)] | > 100 µM
COc1ccc(-c2cc(-c3ccc4c(c3)c3ccccc3n4C)nc(N)n2)cc1 [4-(4-Methoxyphenyl)-6-(9-methyl-9H-carbazol-3-yl)-pyrimidin-2-amine (5b)] | 95.4 µM
COc1cc(OC)c(-c2cc(-c3ccc4c(c3)c3ccccc3n4C)nc(N)n2)c(OC)c1 [4-(9-Methyl-9H-carbazol-3-yl)-6-(2,4,6-trimethoxyphenyl)-pyrimidin-2-amine (5d)] | 73.7 µM
Cn1c2ccccc2c2cc(-c3cc(-c4ccc([N+](=O)[O-])cc4)nc(N)n3)ccc21 [4-(9-Methyl-9H-carbazol-3-yl)-6-(4-nitrophenyl)-pyrimidin-2-amine (5m)] | 87.2 µM
Cn1c2ccccc2c2cc(-c3cc(-c4ccccn4)nc(N)n3)ccc21 [4-(9-Methyl-9H-carbazol-3-yl)-6-(pyridin-2-yl)-pyrimidin-2-amine (5o)] | > 100 µM
Cn1c2ccccc2c2cc(-c3cc(-c4cccs4)nc(N)n3)ccc21 [4-(9-Methyl-9H-carbazol-3-yl)-6-(thiophen-2-yl)-pyrimidin-2-amine (5n)] | > 100 µM
Cn1c2ccccc2c2cc(-c3cc(-c4ccccc4)nc(N)n3)ccc21 [4-(9-Methyl-9H-carbazol-3-yl)-6-phenylpyrimidin-2-amine (5a)] | > 100 µM
